{"source": "patent US20200010910A1", "about": "“Cytotoxic Chemotherapy-Based Predictive Assays for Acute Myeloid Leukemia” (The Regents of The University of California, priority 2017, published 2020)", "key": {"[1]": {"conditions": "sterile solution in water", "quoted_text": "Radiolabeled carboplatin containing C^14 carbon atoms in the cyclobutane dicarboxylic acid group was formulated for human use as a sterile, pyrogen free solution at 5 mg/mL in water."}, "[2]": {"system": "six breast cancer cell lines", "assay": "carboplatin-DNA monoadducts by AMS in cell culture", "format": "cell-based, human", "conditions": "4 hours exposure, range over cell lines and time points", "protocol": "Cells were seeded in 60-mm dishes at a density of 1×10^6 cells/dish and allowed to attach overnight in a 37° C. humidified atmosphere containing 5% C02. Cells were treated with 1 μM (a relevant microdose concentration) and 100 μM (a therapeutically relevant concentration) carboplatin. Both the microdose and the therapeutic cell culture treatments included 0.3 μM of [^14C]carboplatin at a final concentration 50,000 dpm/ml for 4 hours, followed by washing and incubation in culture medium free of carboplatin. […] The number of carboplatin-DNA monoadducts was calculated based on the ^14C content in genomic DNA as measured by AMS. […] The concentration of the DNA was determined by its absorption at 260 nm using a Nanodrop spectrophotometer, and then the samples were stored frozen at −80° C. For AMS analysis, a DNA sample was thawed, mixed well by vortexing, and 1-10 μg of DNA was then submitted for AMS analysis, which includes the addition of 1.0 mg of tributyrin as a carrier, followed by combustion to CO2 and reduction to graphite according to published protocols (Ognibene, Ted J., et al. “A high-throughput method for the conversion of CO2 obtained from biochemical samples to graphite in septa-sealed vials for quantification of 14C via accelerator mass spectrometry.” Analytical chemistry 75.9 (2003): 2192-2196). […]"}, "TCCSUP": {"system": "TCCSUP", "assay": "MTT assay IC50, bladder cancer cell line", "format": "cell-based", "description": "If these diadducts are the predominant DNA lesion responsible for cell death, then the IC50 of the two drugs should be linearly related. Thus, we measured the IC50 of the six NSCLC cell lines from Example 2 to both cisplatin and carboplatin to determine if the sensitivity of these six NSCLC cell lines to the two drugs are correlated. We observed a statistically significant linear correlation of the cytotoxicity of these two drugs in the 6 cell lines used in this study (R^2=0.72, p=0.033, FIG. 9A) and also to six additional ATCC bladder cancer cell lines. (R^2=0.72, p=0.033), FIG. 9B)."}, "[3]": {"assay": "carboplatin plasma pharmacokinetics in mice", "format": "in vivo, Balb/c mice", "protocol": "Balb/c mice received a bolus [^14C]carboplatin tail vein injection at microdose (0.373 mg/kg; 50,000 dpm/gm) or therapeutic dose (37.3 mg/kg; 50,000 dpm/gm). Mice were sacrificed in triplicate at 15 min, 1 h, 2 h, 8 h and 24 h. Concentrations of carboplatin in plasma were measured by liquid scintillation counting at each time point."}, "H23, H460, and H727": {"system": "H23, H460, and H727", "assay": "carboplatin-DNA monoadducts by AMS, average of sensitive NSCLC lines", "format": "cell-based, human", "conditions": "three most sensitive cell lines", "protocol": "NSCLC cell lines were cultured to >90% confluence, dosed with [^14C]carboplatin, and subjected to DNA isolation and AMS analysis. 60 mm dishes were seeded at a density of 1×10^6 cells/dish and allowed to attach overnight in a 37° C. humidified atmosphere containing 5% CO2. At hour 0, cells were dosed with 1 μM (relevant microdose concentration) or 100 μM carboplatin (therapeutically relevant concentration), each comprising 0.3 μM [^14C]carboplatin (50,000 dpm/ml). Cells were incubated with [^14C]carboplatin for 4 h before washing and cultured with carboplatin-free medium to mimic the in vivo carboplatin half-life (1.3-6 hours) in patients. DNA was harvested from the cell lines at hours 0, 2, 4, 8 and 24 hours after initial dosing. Ten micrograms of DNA per sample was converted to graphite and measured by AMS for ^14C/total C quantification. Triplicate sets of AMS experiments were performed for each cell line and time point. The 14C/total C ratio was converted to 14C atoms per DNA base-pair according to the algorithm described herein to provide values of carboplatin-DNA monoadducts per 10^8 nucleotides. The data was plotted as carboplatin-DNA monoadducts per 10^8 nucleotide (nt) vs time (FIGS. 8A and 8B). There was a time-dependent increase in the carboplatin-DNA monoadduct concentration during the first 4 hours of incubation with therapeutic or microdosing carboplatin (FIGS. 8A and 8B). […]"}}}
{"smiles": "N.N.O=C([O-])C1(C(=O)[O-])CCC1.[Pt+2]", "note": "[carboplatin]", "values": [{"measurement": "loss of radiopurity per year", "setting": "[1]; storage at −20° C.", "value": "< 2", "unit": "%"}, {"measurement": "stability to freeze/thaw", "setting": "[1]; upon freezing", "value": "no observed precipitation"}, {"measurement": "DNA damage concentrations (carboplatin-DNA monoadducts)", "setting": "[2]; microdose 1 μM carboplatin", "value": "1-15 monoadducts per 10^8 nt"}, {"measurement": "DNA damage concentrations (carboplatin-DNA monoadducts)", "setting": "[2]; therapeutic dose 100 μM carboplatin", "value": "100-1500 monoadducts per 10^8 nt"}, {"measurement": "IC50", "setting": "TCCSUP", "value": "91.5 ± 6.81", "unit": "µM"}, {"measurement": "Cmax", "setting": "[3]; microdose 0.373 mg/kg", "value": 1, "unit": "µM"}, {"measurement": "initial T1/2", "setting": "[3]; microdose 0.373 mg/kg bolus tail vein", "value": 50, "unit": "min"}, {"measurement": "Cmax", "setting": "[3]; therapeutic dose 37.3 mg/kg", "value": "127 ± 30", "unit": "µM"}, {"measurement": "initial T1/2", "setting": "[3]; therapeutic dose 37.3 mg/kg bolus tail vein", "value": 50, "unit": "min"}, {"measurement": "average area under curve (AUC) of carboplatin-DNA monoadducts", "setting": "H23, H460, and H727; microdosing", "value": "94.61±33.99 hr-monoadducts per 10^8 nt"}, {"measurement": "average area under curve (AUC) of carboplatin-DNA monoadducts", "setting": "H23, H460, and H727; therapeutic dosing", "value": "9617.8±3172.7 hr-monoadducts per 10^8 nt"}]}
